In ChEMBL document CHEMBL1201862, “PubChem BioAssay data set” (2004):
Activity calls are given as the source filed them. For most assays here, no stated cut-off is given here; in the data, actives have a measured EC50 and inactives only a lower limit.

Columns and labels:
CAAX prenyl protease 2 [1] = molecular target: T1, CAAX prenyl protease 2 (Saccharomyces cerevisiae S288c, UniProt Q03530); assay type: biochemical
T1 sequence (Q03530 whole entry): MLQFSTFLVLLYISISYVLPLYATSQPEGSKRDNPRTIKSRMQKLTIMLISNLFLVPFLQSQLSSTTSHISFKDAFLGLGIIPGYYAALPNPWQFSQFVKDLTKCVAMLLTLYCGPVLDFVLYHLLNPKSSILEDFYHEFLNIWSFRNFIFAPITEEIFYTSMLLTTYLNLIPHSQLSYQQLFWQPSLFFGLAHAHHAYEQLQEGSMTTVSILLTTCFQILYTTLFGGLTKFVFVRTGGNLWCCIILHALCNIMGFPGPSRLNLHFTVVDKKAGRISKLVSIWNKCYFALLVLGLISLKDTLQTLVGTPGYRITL

Trypsin = Trypsin (Sus scrofa, UniProt P00761); experiment: porcine trypsin inhibitors, dose response, selectivity assay for Rce1 protease inhibitor project, biochemical, quenched peptide fluorescence, cherry-pick (AID 488789)
Sequence of Trypsin (P00761 whole entry): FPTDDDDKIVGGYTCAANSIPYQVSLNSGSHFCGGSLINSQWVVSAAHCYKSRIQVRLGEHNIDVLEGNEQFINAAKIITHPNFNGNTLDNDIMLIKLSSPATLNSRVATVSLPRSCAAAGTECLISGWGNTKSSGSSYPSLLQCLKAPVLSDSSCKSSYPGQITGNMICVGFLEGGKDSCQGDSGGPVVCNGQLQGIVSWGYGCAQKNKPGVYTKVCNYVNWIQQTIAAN

[2] = tested on: Streptococcus sp. 'group A'; experiment: growth inhibition of control SK(-) GAS strain, dose response, counter-screen for streptokinase expression inhibitor project, luminescence, kanamycin, BacTiterGlo, confirmation (AID 1900); assay type: functional, organism-based
Streptococcus = experiment: Group A Streptococcus viability loss, dose response, counter-screen for streptokinase expression inhibitor project, luminescence, BacTiterGlo (AID 1915); assay type: functional, organism-based;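 further: potency for reduction of bacterial viability or growth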
CAAX prenyl protease 2 [3] = molecular target: CAAX prenyl protease 2 (Homo sapiens, UniProt Q9Y256); experiment: human Rce1 protease inhibitors, dose response, biochemical, yeast membranes, quenched-peptide fluorescence, cherry-pick (AID 588849)
Sequence of CAAX prenyl protease 2 (Homo sapiens, UniProt Q9Y256) (Q9Y256 whole entry): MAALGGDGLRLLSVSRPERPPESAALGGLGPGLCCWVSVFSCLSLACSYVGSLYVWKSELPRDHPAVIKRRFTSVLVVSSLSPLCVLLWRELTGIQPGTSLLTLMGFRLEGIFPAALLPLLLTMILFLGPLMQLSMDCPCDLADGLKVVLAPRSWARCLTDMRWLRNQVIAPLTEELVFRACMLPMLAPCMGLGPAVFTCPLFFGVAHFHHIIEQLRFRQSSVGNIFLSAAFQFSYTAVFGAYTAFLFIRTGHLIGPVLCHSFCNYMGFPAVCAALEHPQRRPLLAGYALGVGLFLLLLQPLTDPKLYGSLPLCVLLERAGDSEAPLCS

CAAX prenyl protease 1 = CAAX prenyl protease 1 (Saccharomyces cerevisiae S288c, UniProt P47154); experiment: Ste24 protease inhibitors, dose response, biochemical, S. cerevisiae, plate reader, cherry-pick (AID 488815)
Sequence of CAAX prenyl protease 1 (P47154 whole entry): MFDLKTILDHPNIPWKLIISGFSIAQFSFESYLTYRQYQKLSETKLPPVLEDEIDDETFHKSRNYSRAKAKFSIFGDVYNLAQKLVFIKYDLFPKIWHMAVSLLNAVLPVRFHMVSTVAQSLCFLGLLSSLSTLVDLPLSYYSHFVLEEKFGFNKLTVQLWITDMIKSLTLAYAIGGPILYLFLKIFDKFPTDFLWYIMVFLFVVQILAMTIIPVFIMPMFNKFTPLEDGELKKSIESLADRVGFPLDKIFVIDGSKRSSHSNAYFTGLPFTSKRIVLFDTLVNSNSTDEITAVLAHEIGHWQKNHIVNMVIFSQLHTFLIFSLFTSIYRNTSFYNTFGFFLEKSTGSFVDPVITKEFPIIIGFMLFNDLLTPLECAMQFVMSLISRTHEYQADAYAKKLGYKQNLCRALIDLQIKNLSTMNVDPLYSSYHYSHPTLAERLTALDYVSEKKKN

Streptokinase A = molecular target: T2, Streptokinase A (Streptococcus pyogenes serotype M1, UniProt P10520); experiment: S. pyogenes streptokinase expression inhibitors, potency, dose response, plasminogen activation absorbance, OD405 (AID 1914); assay type: functional, Streptococcus pyogenes M1 GAS;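 further: secreted streptokinase activity via plasminogen activation per viability signal from cell pellet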
T2 sequence (P10520 whole entry): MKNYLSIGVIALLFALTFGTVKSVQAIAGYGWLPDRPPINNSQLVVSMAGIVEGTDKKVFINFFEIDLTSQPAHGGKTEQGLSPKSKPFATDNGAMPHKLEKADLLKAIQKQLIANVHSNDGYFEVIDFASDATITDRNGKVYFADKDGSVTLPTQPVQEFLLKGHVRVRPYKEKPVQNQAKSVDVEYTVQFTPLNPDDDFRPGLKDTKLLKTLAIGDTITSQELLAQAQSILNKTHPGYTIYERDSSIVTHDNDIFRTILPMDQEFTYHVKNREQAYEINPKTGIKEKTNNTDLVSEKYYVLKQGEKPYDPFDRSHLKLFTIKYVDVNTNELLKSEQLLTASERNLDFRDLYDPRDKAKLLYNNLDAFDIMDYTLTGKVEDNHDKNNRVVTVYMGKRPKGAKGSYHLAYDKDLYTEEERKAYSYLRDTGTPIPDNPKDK

[4] = Luminescence Cell-Based Dose Retest to Confirm Inhibitors of Cancer Stem Cells. [Related pubchem assays (depositor defined):AID2717, AID2721]; assay type: functional; details: Homo sapiens
[5] = molecular target: ALK tyrosine kinase receptor (Homo sapiens, UniProt Q9UM73); assay type: functional;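 further: ALK tested as one member of a kinase panel screen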
Sequence of ALK tyrosine kinase receptor (Q9UM73 whole entry): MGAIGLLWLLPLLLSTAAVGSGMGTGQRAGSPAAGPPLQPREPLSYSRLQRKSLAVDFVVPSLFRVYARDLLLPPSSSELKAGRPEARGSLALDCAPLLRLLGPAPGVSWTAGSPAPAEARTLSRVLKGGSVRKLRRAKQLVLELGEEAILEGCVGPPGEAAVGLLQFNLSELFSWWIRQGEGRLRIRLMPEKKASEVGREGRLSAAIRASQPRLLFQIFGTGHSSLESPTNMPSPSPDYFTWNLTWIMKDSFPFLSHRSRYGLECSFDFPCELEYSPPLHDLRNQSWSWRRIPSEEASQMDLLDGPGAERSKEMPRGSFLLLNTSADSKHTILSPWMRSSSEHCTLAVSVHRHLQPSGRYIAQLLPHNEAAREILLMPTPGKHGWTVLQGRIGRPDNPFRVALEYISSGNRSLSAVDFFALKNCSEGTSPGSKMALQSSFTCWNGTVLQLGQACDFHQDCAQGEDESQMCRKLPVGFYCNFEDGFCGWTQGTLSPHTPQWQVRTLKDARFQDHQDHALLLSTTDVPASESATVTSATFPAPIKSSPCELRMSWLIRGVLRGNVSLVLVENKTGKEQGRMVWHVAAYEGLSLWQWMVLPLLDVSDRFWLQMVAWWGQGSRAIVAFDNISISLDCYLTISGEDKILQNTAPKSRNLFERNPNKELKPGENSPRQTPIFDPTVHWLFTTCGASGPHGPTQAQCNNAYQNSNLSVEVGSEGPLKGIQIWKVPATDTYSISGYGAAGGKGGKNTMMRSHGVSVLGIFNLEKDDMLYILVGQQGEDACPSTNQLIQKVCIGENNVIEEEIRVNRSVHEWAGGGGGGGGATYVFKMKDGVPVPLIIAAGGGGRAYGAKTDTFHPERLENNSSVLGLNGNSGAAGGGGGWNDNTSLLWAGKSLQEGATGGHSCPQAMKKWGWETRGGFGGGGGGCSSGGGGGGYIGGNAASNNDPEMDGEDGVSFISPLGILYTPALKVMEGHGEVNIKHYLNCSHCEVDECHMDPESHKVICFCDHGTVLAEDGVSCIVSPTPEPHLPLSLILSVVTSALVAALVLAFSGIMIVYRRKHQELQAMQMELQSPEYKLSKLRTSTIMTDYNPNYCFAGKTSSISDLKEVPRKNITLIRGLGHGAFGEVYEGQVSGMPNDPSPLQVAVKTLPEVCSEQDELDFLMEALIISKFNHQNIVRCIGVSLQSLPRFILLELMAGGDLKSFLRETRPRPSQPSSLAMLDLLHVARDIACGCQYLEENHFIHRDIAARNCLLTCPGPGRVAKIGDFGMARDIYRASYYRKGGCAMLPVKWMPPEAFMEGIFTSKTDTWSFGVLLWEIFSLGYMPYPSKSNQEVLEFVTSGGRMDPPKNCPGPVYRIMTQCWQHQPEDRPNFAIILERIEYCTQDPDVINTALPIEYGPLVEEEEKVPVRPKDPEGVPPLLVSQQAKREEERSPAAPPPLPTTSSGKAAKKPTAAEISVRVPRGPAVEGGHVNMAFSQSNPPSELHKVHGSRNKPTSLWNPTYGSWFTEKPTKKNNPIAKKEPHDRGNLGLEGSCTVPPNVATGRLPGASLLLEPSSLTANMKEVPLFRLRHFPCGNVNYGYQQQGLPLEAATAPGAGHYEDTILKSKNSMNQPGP

[6] = molecular target: Cyclin-dependent kinase 19 (Homo sapiens, UniProt Q9BWU1); experiment: Navigating the Kinome. Panel member name: CDC2L6; assay type: functional
Sequence of Cyclin-dependent kinase 19 (Q9BWU1 whole entry): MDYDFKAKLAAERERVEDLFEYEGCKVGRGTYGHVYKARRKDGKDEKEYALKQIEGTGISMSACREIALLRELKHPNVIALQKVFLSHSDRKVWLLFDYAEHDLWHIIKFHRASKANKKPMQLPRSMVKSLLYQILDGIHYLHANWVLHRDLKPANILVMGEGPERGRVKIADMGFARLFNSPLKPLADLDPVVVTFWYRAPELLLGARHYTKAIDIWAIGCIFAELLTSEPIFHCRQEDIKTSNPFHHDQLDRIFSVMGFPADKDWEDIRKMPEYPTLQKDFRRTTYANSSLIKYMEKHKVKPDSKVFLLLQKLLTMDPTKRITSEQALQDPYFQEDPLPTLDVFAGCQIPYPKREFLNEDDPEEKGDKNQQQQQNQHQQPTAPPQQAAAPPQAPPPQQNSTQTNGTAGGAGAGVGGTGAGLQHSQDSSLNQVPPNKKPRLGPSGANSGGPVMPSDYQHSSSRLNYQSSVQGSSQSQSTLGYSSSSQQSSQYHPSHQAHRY

[7] = molecular target: Melanin-concentrating hormone receptor 1 (Homo sapiens, UniProt Q99705); experiment: Late-stage fluorescence-based counterscreen for antagonists of the G-protein coupled receptor 7 (GPR7): cell-based dose response assay to identify antagonists of the melanin-concentrating hormone receptor 1 (MCHR1) Set 5.; assay type: functional
Sequence of Melanin-concentrating hormone receptor 1 (Q99705 whole entry): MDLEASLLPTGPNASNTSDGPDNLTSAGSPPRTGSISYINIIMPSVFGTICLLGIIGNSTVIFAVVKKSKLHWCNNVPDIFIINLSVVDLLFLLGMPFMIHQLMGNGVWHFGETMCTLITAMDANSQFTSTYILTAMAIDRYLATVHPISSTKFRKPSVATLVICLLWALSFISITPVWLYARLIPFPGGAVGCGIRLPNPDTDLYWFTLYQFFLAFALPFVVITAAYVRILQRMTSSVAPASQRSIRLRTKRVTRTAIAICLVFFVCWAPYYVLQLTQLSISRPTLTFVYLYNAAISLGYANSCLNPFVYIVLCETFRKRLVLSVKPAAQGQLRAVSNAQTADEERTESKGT

[8] = molecular target: ATP-dependent molecular chaperone HSP82 (Candida albicans (strain WO-1) (Yeast), UniProt C4YTQ8); experiment: loss of DOC-induced GRE-beta-galactosidase reporter signal, dose response, Hsp90 inhibitor project, S. cerevisiae, luminescence (AID 2400); assay type: functional, cell-based;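 further: beta-galactosidase luminescence from glucocorticoid response element reporter as proxy for Hsp90 function; inhibitor potency where signal loss means Hsp90 inhibition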
Sequence of ATP-dependent molecular chaperone HSP82 (C4YTQ8 whole entry): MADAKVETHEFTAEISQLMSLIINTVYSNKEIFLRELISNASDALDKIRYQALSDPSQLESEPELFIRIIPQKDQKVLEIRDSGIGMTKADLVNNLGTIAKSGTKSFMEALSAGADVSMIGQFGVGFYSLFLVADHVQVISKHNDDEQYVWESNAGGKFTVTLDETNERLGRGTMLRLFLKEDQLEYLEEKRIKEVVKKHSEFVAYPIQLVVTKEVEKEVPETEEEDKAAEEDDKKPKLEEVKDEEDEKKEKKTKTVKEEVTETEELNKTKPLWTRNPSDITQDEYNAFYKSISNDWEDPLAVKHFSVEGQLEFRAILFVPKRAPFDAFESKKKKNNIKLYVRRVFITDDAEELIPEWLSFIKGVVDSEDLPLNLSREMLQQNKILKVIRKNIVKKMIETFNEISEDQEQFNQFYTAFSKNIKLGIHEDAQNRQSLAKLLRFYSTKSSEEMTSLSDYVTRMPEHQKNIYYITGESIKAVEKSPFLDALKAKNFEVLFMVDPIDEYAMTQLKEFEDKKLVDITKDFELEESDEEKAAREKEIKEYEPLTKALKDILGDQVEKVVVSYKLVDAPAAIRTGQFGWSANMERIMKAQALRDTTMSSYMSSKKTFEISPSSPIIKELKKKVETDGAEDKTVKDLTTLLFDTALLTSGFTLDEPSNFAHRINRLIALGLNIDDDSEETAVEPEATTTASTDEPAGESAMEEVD

[9] = molecular target: Serine/threonine-protein phosphatase (Candida dubliniensis (strain CD36 / CBS 7987 / NCPF 3949 / NRRLY-17841) (Yeast), UniProt B9W6M3); experiment: calcineurin pathway inhibitors in yeast reporter, dose response, S. cerevisiae, CDRE-lacZ, luminescence, secondary (AID 2388); assay type: functional, cell-based;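 further: yeast reporter cells carrying a calcineurin-responsive lacZ construct stimulated with calcium chloride; luminescent beta-galactosidase reporter signal in whole cells rather than isolated phosphatase activity; potency for inhibition where a drop in reporter signal means calcineurin blockade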
[10] = microbe, parasite or virus in culture; assay type: functional; details: Mycobacterium tuberculosis
[11] = NIH-3T3 fibroblast cytotoxicity, dose response, cytotoxicity control, cell-based, fluorescence, Alamar Blue, secondary assay (AID 2327); assay type: functional;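 further: NIH-3T3 mouse fibroblasts cultured with fluconazole at 8 µg/mL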
[12] = C. albicans growth with fluconazole, confirmation, fluorescence, retest (AID 2467); assay type: functional, cell-based
[13] = molecular target: Protein disulfide-isomerase (Homo sapiens, UniProt P07237); experiment: PDI inhibitors, insulin aggregation turbidity, dose response, biochemical, absorbance, cherry-picked samples (AID 602350); assay type: functional
Sequence of Protein disulfide-isomerase (P07237 whole entry): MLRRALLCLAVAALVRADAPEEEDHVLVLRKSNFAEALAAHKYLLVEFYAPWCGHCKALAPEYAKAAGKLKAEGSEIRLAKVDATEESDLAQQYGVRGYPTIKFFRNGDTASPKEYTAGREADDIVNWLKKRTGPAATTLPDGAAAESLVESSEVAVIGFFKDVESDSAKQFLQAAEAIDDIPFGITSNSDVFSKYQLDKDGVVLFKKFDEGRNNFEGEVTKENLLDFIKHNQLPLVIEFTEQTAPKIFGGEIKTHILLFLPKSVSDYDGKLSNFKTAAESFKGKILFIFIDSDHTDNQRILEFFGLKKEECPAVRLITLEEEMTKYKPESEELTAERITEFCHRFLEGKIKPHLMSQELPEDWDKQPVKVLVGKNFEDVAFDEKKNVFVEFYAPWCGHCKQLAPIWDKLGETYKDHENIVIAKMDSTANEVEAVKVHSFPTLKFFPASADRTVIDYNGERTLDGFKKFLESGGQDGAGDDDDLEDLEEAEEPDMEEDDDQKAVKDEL

BJ [14] = experiment: cells; assay type: functional, cell-based; details: Homo sapiens
[15] = cytotoxicity toward DRD oncogenic fibroblasts, dose response, cell-based, non-viral oncogenic, luminescence (AID 1934); assay type: functional; details: Homo sapiens
BJ [16] = experiment: cytotoxicity toward BJ-TERT-LT-ST fibroblasts, dose response, cell-based, RAS-independent, luminescence (AID 1935); assay type: functional; details: Homo sapiens;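 further: BJ fibroblasts immortalized with TERT plus LT and ST oncogenes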
BJ [17] = experiment: cytotoxicity toward Ras-transformed BJeLR fibroblasts, dose response, cell-based, alamar blue fluorescence, cherrypicked samples (AID 2631); assay type: functional; details: Homo sapiens;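 further: confirmatory dose-response assay in RAS-dependent BJ fibroblasts engineered with TERT, LT and ST, with cytotoxicity read by fluorescence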
BJ [18] = experiment: cytotoxicity toward BJ-TERT fibroblasts, dose response, cell-based, RAS-independent, luminescence (AID 1933); assay type: functional; details: Homo sapiens

## Cc1cccc(-c2oc3ccccc3c2C#CCCCCO)c1
CAAX prenyl protease 2 [1]
  AC50: 7.08 µM (active)
Trypsin
  AC50: 3.53 µM (active)
[2]
  EC50: 4.57 µM (active)
Streptococcus
  EC50: 7.64 µM (active)
CAAX prenyl protease 2 [3]
  AC50: 12.9 µM (active)
CAAX prenyl protease 1
  AC50: 3.56 µM (active)
Streptokinase A
  EC50: > 150 µM (not active)
[4]
  AC50: 6.31 µM (active)

## Cn1cc(Nc2ncc(Br)c(Nc3ccccc3)n2)cn1
[5]
  Ki: 1.26 µM (active)
[6]
  Ki: 2 µM (active)

## COc1ccc(Oc2c(Cl)cnn(C3c4ccccc4Oc4ccccc43)c2=O)cc1
[7]
  IC50: > 20 µM (inactive)

## Cc1c(Cl)ccc2c1NC(=O)[C@]21N[C@@H](Cc2ccccc2)[C@H]2C(=O)N(c3ccc(F)cc3)C(=O)[C@H]21
[8]
  EC50: > 160 µM (inactive)
[9]
  EC50: > 180 µM (inactive)
[10]
  CC50: 33 µM (active)
[11]
  EC50: > 150 µM (inactive)
[12]
  EC50: 0.206 µM (active)

## C[C@H]1CN([C@@H](C)CO)C(=O)c2cccc(NS(C)(=O)=O)c2O[C@@H]1CN(C)Cc1ccc(Oc2ccccc2)cc1
[13]
  AC50: 19.5 µM (active)

## Cc1ccccc1Nc1nc(N)nc(CCl)n1
BJ [14]
  EC50: 7.39 µM (inconclusive)
[15]
  EC50: 4.85 µM (active)
BJ [16]
  EC50: > 150 µM (not active)
BJ [17]
  EC50: 13.6 µM (active)
BJ [18]
  EC50: 0.369 µM (inconclusive)
